The target in assay [1] is TRAF2 and NCK-interacting protein kinase (Homo sapiens, UniProt Q9UKE5). The assay is described as follows: Inhibition of human recombinant TNIK (1 to 367 residues) using RLGRDKYKTLRQIRQ as substrate incubated for 40 mins in presence of Mg/ATP mix by [gamma p33]-ATP based radiometric scintillation counting method.
Assay [2] concerns HCT-116. The assay is described as follows: Antiproliferative activity against human HCT-116 cells assessed as inhibition of cell proliferation incubated for 72 hrs by MTT assay. Type of assay: functional, cell-based. Particulars: HCT-116, 72 h.
Assay [3] deals with HCT-116. Kind of assay: Downregulation of nuclear beta-catenin protein expression in human HCT-116 cells at 10 to 40 uM incubated for 48 hrs by western blot analysis. Particulars: dose 10-40 µM, DDE = dose-dependent effect. Type of assay: functional, cell-based.
In assay [4] the test system is HCT-116. The assay is described as follows: Inhibition of cell migration in human HCT-116 cells at 1 uM incubated for 24 to 48 hrs by wound-closure assay. Type of assay: functional, cell-based. Conditions: time 24-48 hrs.
Assay [5] has as its target Vascular endothelial growth factor receptor 2 (Homo sapiens) (UniProt P35968). Kind of assay: Inhibition of recombinant human KDR (790 to end residues) using myelin basic protein as substrate incubated for 40 mins in presence of [gamma-33P]-ATP by radiometric based scintillation counter assay.
Assay [6] has as its system HCT-116. Kind of assay: Inhibition of colony formation in human HCT-116 cells assessed as inhibition of cell proliferation at 1.25 to 5 uM incubated for 14 days by crystal violet staining based microscopic analysis. Type of assay: functional. Conditions: dose 1.25-5 µM, time 14.0 day, DDE = dose-dependent effect.
For assay [7], the target named is Vascular endothelial growth factor receptor 3 (Homo sapiens) (UniProt P35916). The assay is described as follows: Inhibition of human recombinant FLT4 (800 to end residues) using GGEEEEYFELVKKKK as substrate incubated for 40 mins in presence of [gamma-33P]-ATP by radiometric based scintillation counter assay.
Vascular endothelial growth factor receptor 3 (Homo sapiens), sequence (P35916 whole entry): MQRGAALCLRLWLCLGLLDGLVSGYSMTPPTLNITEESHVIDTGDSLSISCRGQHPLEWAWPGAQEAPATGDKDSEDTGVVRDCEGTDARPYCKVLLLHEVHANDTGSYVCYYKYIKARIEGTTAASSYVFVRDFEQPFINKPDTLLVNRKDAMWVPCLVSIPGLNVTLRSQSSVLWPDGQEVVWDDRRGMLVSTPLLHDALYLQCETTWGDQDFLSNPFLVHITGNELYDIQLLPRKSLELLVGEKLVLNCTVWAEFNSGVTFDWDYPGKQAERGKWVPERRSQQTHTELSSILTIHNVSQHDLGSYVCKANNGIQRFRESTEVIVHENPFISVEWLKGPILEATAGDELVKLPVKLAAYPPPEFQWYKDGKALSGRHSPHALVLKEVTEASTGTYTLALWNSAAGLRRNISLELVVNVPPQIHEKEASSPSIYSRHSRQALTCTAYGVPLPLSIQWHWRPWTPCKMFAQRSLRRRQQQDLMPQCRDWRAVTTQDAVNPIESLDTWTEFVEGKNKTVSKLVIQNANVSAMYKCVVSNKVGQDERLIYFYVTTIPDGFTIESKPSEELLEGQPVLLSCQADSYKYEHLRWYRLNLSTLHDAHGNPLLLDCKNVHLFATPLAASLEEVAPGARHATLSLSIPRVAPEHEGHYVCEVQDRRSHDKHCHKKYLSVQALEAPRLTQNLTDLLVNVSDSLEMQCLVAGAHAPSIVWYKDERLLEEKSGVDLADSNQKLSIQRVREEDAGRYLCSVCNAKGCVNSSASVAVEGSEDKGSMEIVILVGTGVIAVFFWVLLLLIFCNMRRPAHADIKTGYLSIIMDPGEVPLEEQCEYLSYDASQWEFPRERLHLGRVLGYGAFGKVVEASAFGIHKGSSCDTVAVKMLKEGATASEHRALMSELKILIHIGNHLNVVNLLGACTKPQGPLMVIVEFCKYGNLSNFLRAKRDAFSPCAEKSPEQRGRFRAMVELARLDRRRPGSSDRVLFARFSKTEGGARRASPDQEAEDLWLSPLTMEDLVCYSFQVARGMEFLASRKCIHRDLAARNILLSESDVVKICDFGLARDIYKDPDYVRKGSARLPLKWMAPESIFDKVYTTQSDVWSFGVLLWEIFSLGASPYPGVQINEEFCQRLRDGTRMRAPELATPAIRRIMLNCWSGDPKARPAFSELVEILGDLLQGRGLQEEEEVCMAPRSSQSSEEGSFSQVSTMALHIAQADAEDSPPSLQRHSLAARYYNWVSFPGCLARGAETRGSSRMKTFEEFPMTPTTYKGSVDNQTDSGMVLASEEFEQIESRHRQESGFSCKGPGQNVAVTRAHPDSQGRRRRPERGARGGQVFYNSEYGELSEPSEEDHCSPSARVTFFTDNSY
In assay [8] the test system is HCT-116. Kind of assay: Downregulation of c-Myc protein expression in human HCT-116 cells at 10 to 40 uM incubated for 48 hrs by western blot analysis. It counts as functional, cell-based. Particulars: dose 10-40 µM.
For assay [9], the system named is HCT-116. Kind of assay: Downregulation of nuclear TCF-4 protein expression in human HCT-116 cells at 10 to 40 uM incubated for 48 hrs by western blot analysis. It counts as functional, cell-based. Conditions: dose 10-40 µM, DDE = dose-dependent effect.
The subject of assay [10] is HCT-116. Kind of assay: Downregulation of Axin2 protein expression in human HCT-116 cells at 10 to 40 uM incubated for 48 hrs by western blot analysis. Type of assay: functional, cell-based. Conditions: dose 10-40 µM.

We go through 39 molecules from ChEMBL document CHEMBL5143674, “Discovery of benzo[d]oxazol-2(3H)-one derivatives as a new class of TNIK inhibitors for the treatment of colorectal cancer” (Bioorg Med Chem Lett, 2022).

SMILES strings stand for the structures. pIC50: −log10 of the molar value. Activity calls are given as the source filed them. The calls are words filed in the database; no cut-off is given here.

TRAF2 and NCK-interacting protein kinase, sequence (Q9UKE5 whole entry, the tested form may be a part): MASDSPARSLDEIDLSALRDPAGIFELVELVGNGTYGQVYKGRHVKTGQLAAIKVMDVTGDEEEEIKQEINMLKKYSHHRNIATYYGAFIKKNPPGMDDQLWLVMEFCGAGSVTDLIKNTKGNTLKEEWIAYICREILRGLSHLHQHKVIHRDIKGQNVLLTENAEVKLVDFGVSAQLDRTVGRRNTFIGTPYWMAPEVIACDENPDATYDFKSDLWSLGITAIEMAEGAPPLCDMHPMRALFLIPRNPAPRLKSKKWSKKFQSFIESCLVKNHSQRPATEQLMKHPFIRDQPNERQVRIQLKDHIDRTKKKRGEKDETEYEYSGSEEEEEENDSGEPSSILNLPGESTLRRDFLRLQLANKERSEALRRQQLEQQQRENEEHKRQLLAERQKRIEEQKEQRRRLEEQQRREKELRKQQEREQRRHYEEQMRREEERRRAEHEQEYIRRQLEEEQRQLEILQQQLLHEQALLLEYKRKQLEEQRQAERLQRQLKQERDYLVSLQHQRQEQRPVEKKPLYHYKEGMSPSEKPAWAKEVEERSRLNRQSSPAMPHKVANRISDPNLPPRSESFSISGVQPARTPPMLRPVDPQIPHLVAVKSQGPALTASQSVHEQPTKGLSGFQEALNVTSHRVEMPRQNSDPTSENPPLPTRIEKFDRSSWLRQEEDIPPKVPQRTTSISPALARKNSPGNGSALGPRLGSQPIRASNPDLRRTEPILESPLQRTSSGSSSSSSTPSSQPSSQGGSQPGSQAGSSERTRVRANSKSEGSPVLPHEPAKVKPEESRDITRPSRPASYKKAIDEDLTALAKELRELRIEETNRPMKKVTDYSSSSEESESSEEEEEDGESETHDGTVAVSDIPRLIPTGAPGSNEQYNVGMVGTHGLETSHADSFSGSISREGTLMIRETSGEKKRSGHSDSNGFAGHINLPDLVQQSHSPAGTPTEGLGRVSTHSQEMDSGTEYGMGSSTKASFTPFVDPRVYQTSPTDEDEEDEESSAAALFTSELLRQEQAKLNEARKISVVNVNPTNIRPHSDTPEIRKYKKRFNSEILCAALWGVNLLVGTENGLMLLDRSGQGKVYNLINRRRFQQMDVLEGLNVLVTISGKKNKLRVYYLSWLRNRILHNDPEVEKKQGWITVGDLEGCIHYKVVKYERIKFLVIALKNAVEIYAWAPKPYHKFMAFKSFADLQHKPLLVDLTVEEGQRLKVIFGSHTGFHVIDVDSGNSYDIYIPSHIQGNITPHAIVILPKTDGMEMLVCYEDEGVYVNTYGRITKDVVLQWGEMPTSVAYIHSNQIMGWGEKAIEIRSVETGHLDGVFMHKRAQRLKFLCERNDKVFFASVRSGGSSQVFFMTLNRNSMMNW
Vascular endothelial growth factor receptor 2 (Homo sapiens), sequence (P35968 whole entry): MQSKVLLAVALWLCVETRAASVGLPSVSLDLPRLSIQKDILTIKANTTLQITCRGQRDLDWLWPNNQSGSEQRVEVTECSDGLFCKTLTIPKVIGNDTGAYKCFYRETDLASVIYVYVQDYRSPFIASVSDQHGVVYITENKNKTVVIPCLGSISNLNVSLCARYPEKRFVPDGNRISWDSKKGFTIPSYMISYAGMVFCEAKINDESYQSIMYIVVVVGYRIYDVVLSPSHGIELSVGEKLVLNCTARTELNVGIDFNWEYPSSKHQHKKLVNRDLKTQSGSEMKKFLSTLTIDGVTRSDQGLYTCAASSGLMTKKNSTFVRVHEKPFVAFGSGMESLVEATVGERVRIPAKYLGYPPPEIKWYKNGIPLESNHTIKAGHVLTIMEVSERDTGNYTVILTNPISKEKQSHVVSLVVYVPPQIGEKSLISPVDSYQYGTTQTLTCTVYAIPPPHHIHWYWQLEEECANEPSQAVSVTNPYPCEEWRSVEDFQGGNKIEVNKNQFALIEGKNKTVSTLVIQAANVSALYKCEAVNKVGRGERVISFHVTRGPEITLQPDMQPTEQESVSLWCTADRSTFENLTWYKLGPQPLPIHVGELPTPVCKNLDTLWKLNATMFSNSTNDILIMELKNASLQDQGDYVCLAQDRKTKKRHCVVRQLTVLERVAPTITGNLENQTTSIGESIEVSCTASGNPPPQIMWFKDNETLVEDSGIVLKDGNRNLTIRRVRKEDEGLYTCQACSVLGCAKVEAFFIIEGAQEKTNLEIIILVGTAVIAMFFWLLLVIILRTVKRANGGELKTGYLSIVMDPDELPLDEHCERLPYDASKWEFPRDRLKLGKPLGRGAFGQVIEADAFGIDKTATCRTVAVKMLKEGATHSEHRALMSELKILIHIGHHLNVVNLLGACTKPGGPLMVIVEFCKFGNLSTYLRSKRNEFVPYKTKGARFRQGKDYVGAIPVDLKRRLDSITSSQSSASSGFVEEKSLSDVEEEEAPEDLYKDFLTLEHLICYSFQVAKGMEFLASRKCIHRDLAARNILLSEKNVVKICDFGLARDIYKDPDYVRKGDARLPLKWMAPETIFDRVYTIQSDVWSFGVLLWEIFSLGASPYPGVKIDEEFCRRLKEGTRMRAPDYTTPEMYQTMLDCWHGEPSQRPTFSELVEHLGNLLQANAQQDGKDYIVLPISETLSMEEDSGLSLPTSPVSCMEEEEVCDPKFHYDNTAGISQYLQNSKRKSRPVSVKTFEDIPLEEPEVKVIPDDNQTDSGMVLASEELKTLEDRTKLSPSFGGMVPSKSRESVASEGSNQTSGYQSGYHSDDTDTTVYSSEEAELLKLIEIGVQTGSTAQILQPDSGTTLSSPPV

In the case of `O=c1oc2cc(-c3cnc4[nH]ccc4n3)ccc2n1Cc1ccc(F)cc1`, the negative-log IC50 (pIC50) in [1] is 5.39.
For the molecule `COc1cccc(Cn2c(=O)oc3cc(-c4ccc5[nH]ccc5c4)ccc32)c1`, the pIC50 in assay [1] is 5.93.
The same measure, in the same setting: for `O=c1oc2cc(-c3ccc4[nH]ccc4c3)ccc2n1Cc1ccc(F)cc1` the value was 5.90.
For `Nc1ncnn2c(-c3ccc4c(c3)oc(=O)n4Cc3ccc(F)cc3)ccc12`, the negative-log IC50 (pIC50) is less than 4.00 in assay [2] and 6.18 in assay [1].
With `O=c1cnc2cc(-c3ccc4c(c3)oc(=O)n4Cc3ccc(F)cc3)ccc2[nH]1`, the pIC50 in assay [1] was less than 5.00.
For `O=c1oc2cc(-c3cnc4[nH]ccc4c3)ccc2n1Cc1cccc(F)c1`, the negative-log IC50 (pIC50) is 5.23 in assay [2] and 7.05 in assay [1].
On to `COc1cccc(Cn2c(=O)oc3cc(-c4ccc5c(c4)CCN5)ccc32)c1`, for which the pIC50 was less than 4.00 in assay [2] and 6.58 in assay [1].
As to `O[C@H]1CC[C@@H](Oc2cccc3cnc(Nc4ccc5nc[nH]c5c4)nc23)CC1`, the negative logarithm of the IC50 (pIC50) in [2] was 6.39.
Consider `O=c1oc2cc(-c3c[nH]c4ncccc34)ccc2n1Cc1ccc(F)cc1`, for which the pIC50 in assay [2] is 4.93; in assay [1], 6.64.
Take `COc1cc(-c2ccc3c(c2)oc(=O)n3Cc2ccc(F)cc2)cnc1N`: the negative-log IC50 (pIC50) is 4.44 in [2] and 6.21 in [1].
Regarding `Cc1cccc(Cn2c(=O)oc3cc(-c4cnc5[nH]ccc5c4)ccc32)c1`, the pIC50 was 5.29 in [2] and 6.45 in [1].
For `O=c1oc2cc(-c3cnc4[nH]ccc4c3)ccc2n1Cc1ccc(F)cc1`, in that order: 5.22 and 6.96.
Consider `COc1cccc(Cn2c(=O)oc3cc(-c4ccc5[nH]cc(C(=O)NC6CC6)c5c4)ccc32)c1`, for which the negative-log IC50 (pIC50) in assay [1] was less than 5.00.
For the molecule `O=c1oc2cc(-c3cnc4ccnn4c3)ccc2n1Cc1ccc(F)cc1`, in assay [1], the pIC50 is less than 5.00.
As to `COc1cc(Cn2c(=O)oc3cc(-c4cnc5[nH]ccc5c4)ccc32)ccc1F`, the negative logarithm of the IC50 (pIC50) in [2] is 5.09; in assay [1], 6.14.
For the molecule `COc1cccc(Cn2c(=O)oc3cc(-c4cnc5cc[nH]c5c4)ccc32)c1`, the pIC50 in assay [1] was less than 5.00.
With `N#Cc1cccc(Cn2c(=O)oc3cc(-c4cnc5[nH]ccc5c4)ccc32)c1`, the negative-log IC50 (pIC50) in [1] is less than 5.00.
Take `O=c1oc2cc(-c3cnc4[nH]ccc4c3)ccc2n1Cc1cccc(OC(F)(F)F)c1`: the values for the negative logarithm of the IC50 (pIC50) in [2] and in assay [1] were 5.15 and 6.54, respectively.
For `COc1cccc(Cn2c(=O)oc3cc(-c4cnc5[nH]ccc5n4)ccc32)c1`, in [1], the negative-log IC50 (pIC50) is 5.40.
Same read-out and setting: with `COc1cccc(Cn2c(=O)oc3cc(-c4cnc(C#N)c(C)c4)ccc32)c1` the figure was less than 5.00; with `O=c1oc2cc(-c3cnc4[nH]ccc4c3)ccc2n1Cc1ccccc1F`, 5.98.
Still for that read-out and setting: for `COc1cccc(Cn2c(=O)oc3cc(-c4cccnc4)ccc32)c1` the value was 5.40; for `COc1cccc(Cn2c(=O)oc3cc(-c4ccnc5[nH]ccc45)ccc32)c1`, 5.05; for `O=c1oc2cc(-c3ccc4nncn4c3)ccc2n1Cc1ccc(F)cc1`, less than 5.00.
Same read-out and setting: for `COc1cccc(Cn2c(=O)oc3cc(-c4ccc5[nH]c(C(=O)NC6CC6)cc5c4)ccc32)c1` the value was less than 5.00.
Consider `COc1cccc(Cn2c(=O)oc3cc(-c4ccc(N)nc4)ccc32)c1`, for which the values for the pIC50 in assay [2] and in assay [1] were 5.13 and 6.39, respectively.
On to `COc1cccc(Cn2c(=O)oc3cc(-c4cncnc4)ccc32)c1`, for which, in assay [1], the pIC50 was 5.25.
Still for that read-out and setting: with `O=c1oc2cc(-c3cnc4ncccn34)ccc2n1Cc1ccc(F)cc1` the figure was less than 5.00; with `O=c1oc2cc(-c3cnc4[nH]ccc4c3)ccc2n1Cc1cccc(OC(F)F)c1`, 5.76.
Same read-out and setting: with `O=c1oc2cc(-c3cnc4cccnn34)ccc2n1Cc1ccc(F)cc1` the figure was less than 5.00.
Regarding `COc1cccc(Cn2c(=O)oc3cc(-c4cnc5[nH]ccc5c4)ccc32)c1`, the pIC50 is 5.30 in assay [2] and 7.30 in assay [1]. Moreover, the Activity entry in assay [3] and in assay [9] was “Dde” in each case. Further, the inhibition result in assay [4] is “Active”. In addition, the inhibition is more than 80% in [5], “Dde” in assay [6] and more than 80% in assay [7]. The result in assay [8] and in [10] was Active.
As to `N#Cc1cc(-c2ccc3c(c2)oc(=O)n3Cc2ccc(F)cc2)cnc1N`, the pIC50 in assay [2] is 5.08; in assay [1] it was 6.81.
With `O=c1oc2cc(-c3ccc4ncnn4c3)ccc2n1Cc1ccc(F)cc1`, the negative-log IC50 (pIC50) in assay [1] is 5.61.
On to `Nc1ccc(-c2ccc3c(c2)oc(=O)n3Cc2ccc(F)cc2)cn1`, for which the pIC50 in [2] is 4.78; in [1], 6.63.
On to `O=c1oc2cc(-c3ccc4scnc4c3)ccc2n1Cc1ccc(F)cc1`, for which, in assay [1], the pIC50 was less than 5.00.
As for `O=c1oc2cc(-c3ccnc4[nH]ncc34)ccc2n1Cc1ccc(F)cc1`, the pIC50 in [2] was less than 4.00; in assay [1], 6.04.
`O=c1oc2cc(-c3cnc4[nH]ccc4c3)ccc2n1Cc1cccc(C(F)(F)F)c1`: the negative logarithm of the IC50 (pIC50) in assay [1] was 5.55.
The same measure, in the same setting: for `O=c1oc2cc(-c3cnc4cnccn34)ccc2n1Cc1ccc(F)cc1` the value was less than 5.00.
Still for that read-out and setting: with `O=c1oc2cc(-c3ccn4ncnc4c3)ccc2n1Cc1ccc(F)cc1` the figure was 5.35.
